Reference: patent publication US20250257034A1, “INDOLE DERIVATIVES AS SEROTONERGIC AGENTS USEFUL FOR THE TREATMENT OF DISORDERS RELATED THERETO” (priority 2023, published 2025)

Experiments:
[1] = Rat liver microsomes stability; assay type: in vitro ADME; conditions: rat liver microsomes
Protocol: The objective of this study was to estimate in vitro metabolic stability of exemplary compounds of Formula (I) or a pharmaceutically acceptable salt, solvate, and/or prodrug thereof in pooled human, male rat, and male mouse liver microsomes. The concentrations of compounds in reaction systems were evaluated by LC-MS/MS for estimating the stability in pooled human, male rat, and male mouse liver microsomes. The in vitro intrinsic clearances of test compounds were determined as well.
A master solution in the “Incubation Plate” containing phosphate buffer, ultra-pure H2O, MgCl2 solution and liver microsomes was made according to Table 33. The mixture was pre-warmed at 37° C. water bath for 5 minutes.
40 μL of 10 mM nicotinamide adenine dinucleotide phosphate (NADPH) solution was added to each well. The final concentration of NADPH was 1 mM. The negative control samples were prepared by replacing NADPH with 40 μL of ultra-pure H2O. Samples were prepared in duplicate. Negative controls were prepared in singlet.
The reaction was started with the addition of 4 μL of 200 μM exemplary test compounds of the disclosure or control compounds to each master solution to get the final concentration of 2 μM. This study was performed in duplicate.
Aliquots of 50 μL were taken from the reaction solution at 0, 15, 30, 45, and 60 minutes. The reaction solutions were stopped by the addition of 4 volumes of cold methanol with IS (100 nM alprazolam, 200 nM imipramine, 200 nM labet alol and 2 μM ketoprofen). Samples were centrifuged at 3,220 g for 40 minutes. Aliquot of 90 μL of the supernatant was mixed with 90 μL of ultra-pure H2O and then was used for LC-MS/MS analysis.
LC/MS analysis was performed for all samples from this study using a Shimadzu liquid chromatograph separation system equipped with degasser DGU-20A5R; solvent delivery unit LC-30AD; system controller SIL-30AC; column oven CTO-30A; CTC Analytics HTC PAL System. Mass spectrometric analysis was performed using a Triple Quad™ 5500 instrument.
All calculations were carried out using Microsoft Excel. Peak area ratios of test compound to internal standard (listed in the below table) were determined from extracted ion chromatograms.
All calculations were carried out using Microsoft Excel. Peak areas were determined from extracted ion chromatograms. The slope value, k, was determined by linear regression of the natural logarithm of the remaining percentage of the parent drug vs. incubation time curve.
The in vitro half-life (in vitro t1/2) was determined from the slope value:
Conversion of the in vitro t1/2(min) into the in vitro intrinsic clearance (in vitro CLint, in μL/min/mg proteins) was done using the following equation (mean of duplicate determinations): […]
A master solution in the “Incubation Plate” containing phosphate buffer, ultra-pure H2O, MgCl2 solution and liver microsomes was made according to Table 63. The mixture was pre-warmed at 37° C. water bath for 5 minutes.
40 μL of 10 mM NADPH solution was added to each well. The final concentration of NADPH was 1 mM. The negative control samples were prepared by replacing NADPH with 40 μL of ultra-pure H2O. Samples were prepared in duplicate. Negative controls were prepared in singlet.
Conversion of the in vitro t1/2(min) into the in vitro intrinsic clearance (in vitro C Lt, in μL/min/mg proteins) was done using the following equation (mean of duplicate determinations): […]

human 5-HT1A receptor = biological target: T1, human 5-HT1A receptor (Homo sapiens, UniProt P08908); test: Human 5-HT1A radioligand binding assay ([3H]-8-Hydroxy-DPAT); parameters: expressed in transfected cells; host or cells: HTR1A&Gα15-CHO
T1 sequence (P08908 1-422): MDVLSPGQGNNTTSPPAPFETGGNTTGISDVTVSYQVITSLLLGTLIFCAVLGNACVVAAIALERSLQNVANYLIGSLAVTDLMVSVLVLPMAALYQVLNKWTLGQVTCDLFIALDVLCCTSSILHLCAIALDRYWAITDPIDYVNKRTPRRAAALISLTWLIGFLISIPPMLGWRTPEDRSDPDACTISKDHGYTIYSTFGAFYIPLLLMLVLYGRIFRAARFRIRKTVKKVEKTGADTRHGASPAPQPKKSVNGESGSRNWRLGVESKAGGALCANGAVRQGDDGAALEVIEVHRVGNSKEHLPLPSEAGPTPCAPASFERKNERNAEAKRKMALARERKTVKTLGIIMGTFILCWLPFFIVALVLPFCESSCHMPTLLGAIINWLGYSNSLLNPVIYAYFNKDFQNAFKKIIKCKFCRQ
Protocol: The objective of this study was to evaluate the binding properties of test compounds on 5-hydroxytryptamine receptor 1A (5-HT1A).
1. The assay buffer was prepared following Table 21 below.
2. 8 doses of reference and test compounds were prepared starting from 10 mM stock solution as required by 5-fold serial dilutions with 100% (v/v) DMSO.
3. UniFilter-96 GF/B plate was pretreated: • i. 50 μl/well of 0.5% (v/v) PEI was added to UniFilter-96 G F/B plates. The plates were sealed and incubated at 4° C. for 3 hrs. • ii. After incubation, the plates were washed 3 times with ice-cold wash buffer (50 mM Tris, pH7.4).
4. Assay plate was prepared: • i. Cell membrane was diluted with assay buffer and 100 μl/well was added to 96 round well plates to reach a concentration of 20 μg/well. • ii. 8 concentrations of reference or test compounds were prepared and 50 μl/well was added to 96 round deep well plates. • iii. [3H]-8-Hydroxy-DPAT was diluted with assay buffer to 2 nM (4×final concentration) and 50 μl/well was added to 96 round well plates.
5. The plate was centrifuged at 1000 rpm for 30 secs and then agitated at 600 rpm, R.T. for 5 min.
6. The plates were sealed, and the plate was incubated at 27° C. for 90 min.
7. The incubation was stopped by vacuum filtration onto GF/B filter plates followed by 4 times washing with ice-cold wash buffer (50 mM Tris, pH7.4).
9. The filter plates were sealed and 40 μl/well of scintillation cocktail was added.
10. The plate was read by using a Microbeta^2 microplate counter.
1. For reference and test compounds, the results were expressed as % Inhibition, using the normalization equation: N=100-100x(U-C2)/(C1-C2), where U is the unknown value, C1 is the average of high controls, and C2 is the average of low controls.
2. The IC50 was determined by fitting percentage of inhibition as a […] of compound concentrations with Hill equation using XLfit.
The objective of this study was to evaluate the binding properties of test compounds on 5-hydroxytryptamine receptor 1A (5-HTA).
1. The assay buffer was prepared following Table 50 below.
3. UniFilter-96 G FIB plate was pretreated: • i. 50 μl/well of 0.5% (v/v) PEI was added to UniFilter-96 G FIB plates. The plates were sealed and incubated at 4° C. for 3 hrs. • ii. After incubation, the plates were washed 3 times with ice-cold wash buffer (50 mM Tris, pH7.4).
6. The plates were sealed and the plate was incubated at 27° C. for 90 min.

COc1ccc2[nH]cc(CCN3CC[C@@H](OC(F)F)C3)c2c1 [(R) I-67, (R)-3-(2-(3-(Difluoromethoxy)pyrrolidin-1-yl)ethyl)-5-methoxy-1H-indole]
half-life at 2 μM ([1]; male, pooled liver microsomes, 2 μM compound, 0.5 mg/mL): 10.5 min | CLint scaled at 2 μM ([1]; male, pooled liver microsomes, read-out: Scaled-up CLint): 236 mL/min/kg | microsomal CLint at 2 μM ([1]; male, rat, pooled liver microsomes, 2 μM compound, 0.5 mg/mL, read-out: CLint (μL/min/mg protein)): 132 µL/min/mg | Predicted hepatic CL [1]: 44.73 mL/min/kg | Remaining Percentage (%) ([1]; With Cofactors, 0 min): 100.00% | Remaining Percentage (%) ([1]; With Cofactors, 30 min): 15.35% | Remaining Percentage (%) ([1]; With Cofactors, 60 min): 1.93% | Remaining Percentage (%) ([1]; Without Cofactors, 0 min): 100.00% | Remaining Percentage (%) ([1]; Without Cofactors, 30 min): 91.21% | Remaining Percentage (%) ([1]; Without Cofactors, 60 min): 80.30% | IC50 (human 5-HT1A receptor): 22 nM
